Test results published in US10681909B2, “Herbicidal triazoles” (FMC Corporation, priority 2014, dated 2020).

How the values were obtained:
ducksalad = assay: Test B flooded paddy test; format: in vivo, Heteranthera limosa; conditions: Heteranthera limosa, 360 h, 125 g ai/ha, applied to paddy water at 2-leaf stage, visual rating after 13 to 15 d, scale 0 (no effect) to 100 (complete control), read-out: Plant response rating, Ducksalad, Flood
Summary of the method: (§1)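 Pots were flooded to 3 cm above the soil at treatment, and compounds were applied directly into the paddy water. That depth was held throughout. After 13 to 15 d in a greenhouse, plants were rated visually against untreated controls.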

barnyardgrass [1] = assay: Test C postemergence; format: in vivo, Echinochloa crus-galli
Summary of the method: (§2)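 Seeds were planted in loam soil plus sand and sprayed preemergence. In parallel, potted plants in a peat-based medium were sprayed postemergence at 2 to 18 cm (1- to 4-leaf stage). Compounds were formulated in non-phytotoxic solvent with surfactant.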

pigweed = assay: Test A preemergence; format: in vivo, Amaranthus retroflexus; conditions: Amaranthus retroflexus, pre-emergence, 240 h, 0 to 100 scale (0 no effect, 100 complete control), read-out: Plant response rating, Pigweed
Summary of the method: (§3)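 Herbicidal response was scored on plants treated pre- or postemergence with surfactant-containing, non-phytotoxic solvent formulations. Preemergence meant a directed spray onto soil (loam–sand) holding sown seed; postemergence plants were at one to two leaves.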

galium = assay: Test C postemergence; format: in vivo, Galium aparine
Summary of the method: as §2

sedge, umbrella = assay: Test B flooded paddy test; format: in vivo, Cyperus difformis; conditions: Cyperus difformis, 360 h, 125 g ai/ha, applied to paddy water at 2-leaf stage, visual rating after 13 to 15 d, scale 0 (no effect) to 100 (complete control), read-out: Plant response rating, Sedge, Umbrella, Flood
Summary of the method: as §1

buckwheat, wild = assay: Test D preemergence; format: in vivo, Polygonum convolvulus; conditions: scale 0 to 100
Description: Seeds of plant species selected from bluegrass (annual bluegrass, Poa annua), blackgrass (Alopecurus myosuroides), canarygrass (Phalaris minor), chickweed (common chickweed, Stellaria media), galium (catchweed bedstraw, Galium aparine), bromegrass, down (downy bromegrass, Bromus tectorum), Russian thistle (Salsola kali), field poppy (Papaver rhoeas), field violet (Viola arvensis), foxtail, green (green foxtail, Setaria viridis), deadnettle (henbit deadnettle, Lamium amplexicaule), ryegrass, Ital. (Italian ryegrass, Lolium multiflorum), kochia (Kochia scoparia), lambsquarters (Chenopodium album), oilseed rape (Brassica napus), pigweed (Amaranthus retroflexus), chamomile (scentless chamomile, Matricaria inodora), speedwell (bird's-eye speedwell, Veronica persica), barley, spring (spring barley, Hordeum vulgare), wheat, spring (spring wheat, Triticum aestivum), buckwheat, wild (wild buckwheat, Polygonum convolvulus), wild mustard (Sinapis arvensis), oat, wild (wild oat, Avena fatua), radish, wild (wild radish, Raphanus raphanistrum), […]), barley, winter (winter barley, Hordeum vulgare), and wheat, winter (winter wheat, Triticum aestivum) were planted into a silt loam soil and treated preemergence with test chemicals formulated in a non-phytotoxic solvent mixture which included a surfactant. At the same time, these species were planted in pots containing Sunshine Redi-Earth® planting medium comprising spaghnum peat moss, vermiculite, starter nutrients and dolomitic limestone and treated with postemergence applications of the test chemicals formulated in the same manner. Plants ranged in height from 2 to 18 cm (1- to 4-leaf stage). Treated plants and controls were maintained in a controlled growth environment for 14 to 21 d after which time all species were compared to controls and visually evaluated. […] A dash (-) response means no test result.

soybean = assay: Test C postemergence; format: in vivo, Glycine max
Summary of the method: as §2

waterhemp = assay: Test C postemergence; format: in vivo, Amaranthus rudis
Summary of the method: as §2

corn = assay: Test C postemergence; format: in vivo, Zea mays
Summary of the method: as §2

blackgrass = assay: Test C postemergence; format: in vivo, Alopecurus myosuroides
Summary of the method: as §2

barnyardgrass [2] = assay: Test A preemergence; format: in vivo, Echinochloa crus-galli; conditions: Echinochloa crus-galli, pre-emergence, 240 h, 0 to 100 scale (0 no effect, 100 complete control), read-out: Plant response rating, Barnyardgrass
Summary of the method: as §3

foxtail, giant = assay: Test A postemergence; format: in vivo, Setaria faberii; conditions: Setaria faberi, post-emergence, 240 h, 0 to 100 scale (0 no effect, 100 complete control), approx. 10 d, read-out: Plant response rating, Foxtail, Giant
Summary of the method: as §3

wheat = assay: Test A postemergence; format: in vivo, Triticum aestivum; conditions: Triticum aestivum, post-emergence, 240 h, 0 to 100 scale (0 no effect, 100 complete control), approx. 10 d, read-out: Plant response rating, Wheat
Summary of the method: as §3

ryegrass, Italian = assay: Test C postemergence; format: in vivo, Lolium multiflorum
Summary of the method: as §2

## CCOc1nc(-c2ccc(F)cc2)nn1Cc1ccnc(C(F)(F)F)c1 [Compound 8, 4-[[5-ethoxy-3-(4-fluorophenyl)-1H-1,2,4-triazol-1-yl]methyl]-2-(trifluoromethyl)pyridine]
ducksalad
  pest or weed control at 125 g/ha: 85%
Barnyardgrass [1]; 31 g ai/ha
  Plant response rating (scale of 0 to 100 where 0 is no effect and 100 is complete control): 10
Barnyardgrass [1]; 62 g ai/ha
  Plant response rating (scale of 0 to 100 where 0 is no effect and 100 is complete control): 20
Barnyardgrass [1]; 125 g ai/ha
  Plant response rating (scale of 0 to 100 where 0 is no effect and 100 is complete control): 40
Barnyardgrass [1]; 250 g ai/ha
  Plant response rating (scale of 0 to 100 where 0 is no effect and 100 is complete control): 75
pigweed; 125 g ai/ha
  pest or weed control at 125 g/ha: 100%
pigweed; 500 g ai/ha, approx. 10 d
  pest or weed control at 500 g/ha: 100%
galium; 31 g ai/ha
  Plant response rating (scale of 0 to 100 where 0 is no effect and 100 is complete control): 80
galium; 62 g ai/ha
  Plant response rating (scale of 0 to 100 where 0 is no effect and 100 is complete control): 95
galium; 125 g ai/ha
  Plant response rating (scale of 0 to 100 where 0 is no effect and 100 is complete control): 95
galium; 250 g ai/ha
  Plant response rating (scale of 0 to 100 where 0 is no effect and 100 is complete control): 95
sedge, umbrella
  pest or weed control at 125 g/ha: 90%
buckwheat, wild; 31 g ai/ha
  Plant response rating: Buckwheat, Wild: 35
buckwheat, wild; 62 g ai/ha
  Plant response rating: Buckwheat, Wild: 100
buckwheat, wild; 125 g ai/ha
  Plant response rating: Buckwheat, Wild: 100
buckwheat, wild; 250 g ai/ha
  Plant response rating: Buckwheat, Wild: 100
soybean; 31 g ai/ha
  Plant response rating (scale of 0 to 100 where 0 is no effect and 100 is complete control): 65
soybean; 62 g ai/ha
  Plant response rating (scale of 0 to 100 where 0 is no effect and 100 is complete control): 75
soybean; 125 g ai/ha
  Plant response rating (scale of 0 to 100 where 0 is no effect and 100 is complete control): 95
soybean; 250 g ai/ha
  Plant response rating (scale of 0 to 100 where 0 is no effect and 100 is complete control): 85
waterhemp; 31 g ai/ha
  Plant response rating (scale of 0 to 100 where 0 is no effect and 100 is complete control): 95
waterhemp; 62 g ai/ha
  Plant response rating (scale of 0 to 100 where 0 is no effect and 100 is complete control): 98
waterhemp; 125 g ai/ha
  Plant response rating (scale of 0 to 100 where 0 is no effect and 100 is complete control): 95
waterhemp; 250 g ai/ha
  Plant response rating (scale of 0 to 100 where 0 is no effect and 100 is complete control): 98
corn; 31 g ai/ha
  Plant response rating (scale of 0 to 100 where 0 is no effect and 100 is complete control): 10
corn; 62 g ai/ha
  Plant response rating (scale of 0 to 100 where 0 is no effect and 100 is complete control): 15
corn; 125 g ai/ha
  Plant response rating (scale of 0 to 100 where 0 is no effect and 100 is complete control): 25
corn; 250 g ai/ha
  Plant response rating (scale of 0 to 100 where 0 is no effect and 100 is complete control): 40
blackgrass; 31 g ai/ha
  Plant response rating (scale of 0 to 100 where 0 is no effect and 100 is complete control): 50
blackgrass; 62 g ai/ha
  Plant response rating (scale of 0 to 100 where 0 is no effect and 100 is complete control): 40
blackgrass; 125 g ai/ha
  Plant response rating (scale of 0 to 100 where 0 is no effect and 100 is complete control): 55
blackgrass; 250 g ai/ha
  Plant response rating (scale of 0 to 100 where 0 is no effect and 100 is complete control): 75
Barnyardgrass [2]; 125 g ai/ha
  pest or weed control at 125 g/ha: 100%
Barnyardgrass [2]; 500 g ai/ha, approx. 10 d
  pest or weed control at 500 g/ha: 100%
foxtail, giant; 125 g ai/ha
  pest or weed control at 125 g/ha: 100%
foxtail, giant; 500 g ai/ha
  pest or weed control at 500 g/ha: 100%
wheat; 125 g ai/ha
  plant injury at 125 g/ha: 40%
wheat; 500 g ai/ha
  plant injury at 500 g/ha: 100%
ryegrass, Italian; 31 g ai/ha
  Plant response rating (scale of 0 to 100 where 0 is no effect and 100 is complete control): 30
ryegrass, Italian; 62 g ai/ha
  Plant response rating (scale of 0 to 100 where 0 is no effect and 100 is complete control): 35
ryegrass, Italian; 125 g ai/ha
  Plant response rating (scale of 0 to 100 where 0 is no effect and 100 is complete control): 35
ryegrass, Italian; 250 g ai/ha
  Plant response rating (scale of 0 to 100 where 0 is no effect and 100 is complete control): 50
